We go through 34 molecules from PubChem BioAssay (NCI).

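Each compound was tested at five concentrations against cells in 96-well plates for 48 hours. Abbreviation: GI50, concentration required for 50% inhibition of growth. TGI is the concentration that stops growth completely.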

Test systems include M14 melanoma; LXFL 529 NSCLC; M19-MEL melanoma; DMS 114 small cell lung; DMS 273 small cell lung; HOP-18 NSCLC; KM20L2 colon; XF 498 CNS; SNB-78 CNS; DLD-1 colon.
Assay in all cases: NCI tumour cell line growth inhibition, 48 h

Molecule `COc1cc2c(cc1OCCCCCOc1cc3c(cc1OC)C(=O)N1CCC[C@H]1C(=O)N3)N=C[C@@H]1CCCN1C2=O` returned a TGI with M14 melanoma of 0.521 µM.

The molecule `COC(=O)C1=C(C(=O)OC)C2OC1C1C2C2(C)C(C)=C(C)C1(C)S2=O` (configuration not stated) came in with a TGI with M14 melanoma of 27.7 µM.

In the assay on M14 melanoma, `CCOC(=O)CCC(NC(=O)c1ccc(OCc2nc3cc(C(F)(F)F)ccc3nc2-c2ccccc2)cc1)C(=O)OCC` (configuration not stated) returned a TGI above 100 µM.

In turn, `O=C(/C(=C(/Br)I)c1ccccc1)c1ccccc1` yielded a TGI in the assay on M14 melanoma of 31 µM.

For `O=C1CC2(C[C@@H]3CCCCCCCCC[C@@H](C3)C2)N1` (some centres not stated), the TGI turned out to be 29.7 µM with LXFL 529 NSCLC; 28.8 µM in the assay on M14 melanoma; 28.8 µM with M19-MEL melanoma; 31.6 µM in the assay on DMS 114 small cell lung; 25.3 µM in the assay with DMS 273 small cell lung; 22.6 µM in the assay with HOP-18 NSCLC. In addition, the figures for the TGI in the assay on KM20L2 colon, in the assay on XF 498 CNS and in the assay with SNB-78 CNS were 31.4 µM, 24.9 µM and 49.6 µM, respectively.

The molecule `O=c1[nH]cnc2c(C3OC(CO)C(O)C3O)c[nH]c12` (configuration not stated) came in with a TGI with M14 melanoma above 100 µM.

Take `CC(C)(C)C(=O)C(CC(=O)c1ccccc1)C(=O)C(C)(C)C`: the TGI with M14 melanoma is above 100 µM.

`Cc1ccc(-c2cc(N)n(-c3nc4c([nH]3)c(=O)n(C)c(=O)n4C)n2)cc1`: in the assay on M14 melanoma, the TGI came to 24.4 µM.

`CCCN=C1CC(C)Nc2ccccc2N1` (configuration not stated) displayed a TGI in the assay with M14 melanoma above 100 µM.

The molecule `O=C(NS(=O)(=O)Nc1ccc(Cl)cc1)OCc1ccc(Cl)cc1Cl` registered a TGI in the assay with M14 melanoma above 100 µM.

In the assay on M14 melanoma, `CC(=O)OCC1OC(N2C(=O)/C(=C\c3ccc(Cl)cc3)C(N)=Nc3ccccc32)C(OC(C)=O)C(OC(C)=O)C1OC(C)=O` (configuration not stated) displayed a TGI of 37.4 µM.

`O=C(Cc1nc2ccc(C(=O)c3ccccc3)cc2[nH]c1=O)C(=O)Nc1ccc(Br)cc1` yielded a TGI in the assay on M14 melanoma above 100 µM.

Molecule `Cc1ccc2c(c1C)CC1(Cc3c(ccc4c3CCC4)C1=O)C2=O` (configuration not stated) showed a TGI in the assay with M14 melanoma above 100 µM.

The molecule `O=c1[nH]c2nc3ccccc3c(=O)n2/c1=C/c1ccc(O)cc1` returned a TGI with M14 melanoma above 100 µM.

Take `O=c1c2c3ccccc3[nH]c2c2cccc3c2n1CCC3`: in the assay on M14 melanoma, the TGI was above 100 µM.

Turning to `N#CC1=C(N)OC2=C(CSc3ccccc32)C1c1ccc(Br)cc1` (configuration not stated), the TGI in the assay with M14 melanoma is 39.8 µM.

In the case of `COC(=O)c1cc(CC(C)C)c2c(c1)[nH]c1ccccc12`, the TGI in the assay on LXFL 529 NSCLC, with M14 melanoma, in the assay on DLD-1 colon, in the assay with M19-MEL melanoma, in the assay on DMS 114 small cell lung and with DMS 273 small cell lung was above 100 µM throughout. The TGI with KM20L2 colon and in the assay with XF 498 CNS was above 100 µM throughout.

`[N-]=[N+]=Nc1c(Cl)c(=O)n(-c2ccccc2)c2ccccc12` displayed a TGI in the assay with M14 melanoma of 36.3 µM.

In the assay with M14 melanoma, `c1cc(-c2cnc(-c3ccc4c(c3)CCCO4)o2)ccn1` showed a TGI of 33 µM.

`O=c1c2ccccc2[nH]c(=S)n1-c1ccc(N=Nc2cccc3c(O)cccc23)cc1` yielded a TGI with M14 melanoma above 100 µM.

On to `CCOC(=O)c1cc2c([N+](=O)[O-])c(NC(C)=O)ccc2s1`, for which, in the assay with M14 melanoma, the TGI was above 100 µM.

On to `CC(C)(C)OC(=O)NC(C)(C)C(=O)NCCC(=O)O`, for which the TGI in the assay with M14 melanoma is above 100 µM.

With `COc1ccc(Nc2c(C#N)c3n(c4ccccc24)c2ccccc2[n+]3C)cc1OC`, in the assay with M14 melanoma, the TGI is 8.01 µM.

Consider `CC(C)C(Sc1nc(-c2ccccc2)c(-c2ccccc2)[nH]1)C(=O)NNC(=S)Nc1ccccc1` (configuration not stated), for which the TGI in the assay on LXFL 529 NSCLC was 33.8 µM; in the assay with M14 melanoma it was 30.6 µM; in the assay with DLD-1 colon it was 52 µM; with M19-MEL melanoma it was 33.4 µM; in the assay on DMS 273 small cell lung, 34.8 µM; in the assay on KM20L2 colon, 37.6 µM. Besides, the TGI in the assay on XF 498 CNS turned out to be 32.7 µM; in the assay on SNB-78 CNS, 79.6 µM.

`CCOC(=O)C(OCC1CC=CCC1)Sc1ccccc1` (configuration not stated): the TGI with LXFL 529 NSCLC, in the assay on M14 melanoma, in the assay with DLD-1 colon, with M19-MEL melanoma, with DMS 114 small cell lung and with DMS 273 small cell lung was above 100 µM each time. In addition, the TGI in the assay on HOP-18 NSCLC, in the assay with KM20L2 colon and in the assay with SNB-78 CNS was above 100 µM in each case.

As for `c1ccc(C[P+]2(c3ccccc3)c3ccccc3-c3ccccc32)cc1`, in the assay on M14 melanoma, the TGI is above 100 µM.

`Cc1cc(-c2nc3ccccc3s2)ccc1NS(=O)(=O)O`: the TGI in the assay with M14 melanoma is above 100 µM.

Turning to `COc1ccc2c(c1)c1c(n2CCN2CCOCC2)-c2ccccc2CC1`, the TGI in the assay on M14 melanoma is above 100 µM.

In the case of `CC12CC(c3ccccc3O1)C(C(=O)Nc1ccc(F)cc1)C(=O)N2` (configuration not stated), in the assay with M14 melanoma, the TGI was above 100 µM.

Molecule `c1cc2nnc1SCCSCCSc1ccc(nn1)SCCSCCS2` displayed a TGI with M14 melanoma above 100 µM.

In the case of `CCCCCCCCCC[C@@H](O)[C@H]1CC[C@H]([C@H]2CC[C@H]([C@H](O)CCCCCCCCCC[C@@H]3CC(CC(C)=O)C(=O)O3)O2)O1` (some centres not stated), in the assay with M14 melanoma, the GI50 is 5.29 µM and the TGI is above 50 µM.

In the assay on M14 melanoma, `CC[C@@H]1CC[C@@H]2[C@H](CC[C@]3(C)[C@@H](O)CC[C@@H]23)[C@H]1C(=O)O` yielded a TGI above 100 µM.

In turn, `CO[C@@H](C(=O)OC1C=CC2(CC1)C(=O)N(C)c1ccccc12)c1ccccc1` (some centres not stated) came in with a TGI in the assay on M14 melanoma above 100 µM.

For the molecule `COc1ccc(/C(=C/n2ccnc2)C(=O)c2ccc(OC)c(OC)c2)cc1`, the TGI in the assay with LXFL 529 NSCLC, in the assay on M14 melanoma, in the assay on DLD-1 colon, with M19-MEL melanoma, in the assay with DMS 114 small cell lung and in the assay with DMS 273 small cell lung was above 100 µM in each case. Moreover, the TGI in the assay with KM20L2 colon and with XF 498 CNS was above 100 µM in each case.
